Experimental data published in patent publication US20240239767A1 (AstraZeneca AB, priority 2022, published 2024).

Tests used:
[1] = molecular target: T1, potassium ion channel hERG (human Ether-á-go-go-Related Gene) (Homo sapiens, UniProt Q12809); experiment: Assay 5 - hERG assay (SyncroPatch 384PE patch clamp, CHO cells); type: cell-based; details: geometric mean, CHO cells over-expressing hERG, read-out: Assay 5 (hERG Hu CHO IF EPh CR-Syncro) GMean IC50
T1 construct: expressed in transfected cells; host or cells: Chinese hamster ovary K1 (CHO)
Method in brief: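 Automated whole-cell patch clamp at room temperature on CHO-K1 cells over-expressing hERG, using K-fluoride/escin internal solution (pH 7.2) and NMDG-containing external solution (pH 7.4). Compounds were tested in a 6-point cumulative format, 0.33% final DMSO. Wells accepted only with seal >30 MegaOhm, Z′>0.4 and current >0.2 nA.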

[2] = molecular target: T2, PCSK9 (Homo sapiens, UniProt Q8NBP7, G670E/V474I); experiment: cell-based
Target sequence in this assay (Q8NBP7 31-152): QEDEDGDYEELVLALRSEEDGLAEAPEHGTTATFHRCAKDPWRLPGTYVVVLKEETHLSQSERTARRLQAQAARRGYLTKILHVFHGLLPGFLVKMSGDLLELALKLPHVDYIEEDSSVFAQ
Target sequence in this assay (Q8NBP7 153-692 V474I/G670E): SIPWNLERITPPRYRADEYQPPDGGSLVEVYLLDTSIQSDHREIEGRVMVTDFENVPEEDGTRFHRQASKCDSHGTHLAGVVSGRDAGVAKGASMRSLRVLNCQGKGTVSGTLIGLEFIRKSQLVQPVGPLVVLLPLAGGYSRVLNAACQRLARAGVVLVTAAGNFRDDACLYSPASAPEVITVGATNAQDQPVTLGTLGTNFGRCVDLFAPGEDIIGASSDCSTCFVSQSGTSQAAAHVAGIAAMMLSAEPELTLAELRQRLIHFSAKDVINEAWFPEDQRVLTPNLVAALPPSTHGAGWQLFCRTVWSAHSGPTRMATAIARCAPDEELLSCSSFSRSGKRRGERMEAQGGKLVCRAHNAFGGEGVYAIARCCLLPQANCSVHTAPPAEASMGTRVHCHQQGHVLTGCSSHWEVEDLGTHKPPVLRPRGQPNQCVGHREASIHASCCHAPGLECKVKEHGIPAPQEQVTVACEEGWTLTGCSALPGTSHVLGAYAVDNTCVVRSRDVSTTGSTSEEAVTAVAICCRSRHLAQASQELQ
Text: This assay measures for PCSK9 antagonist activity based on a test compound's capacity to restore LDL-C uptake in HepG2 cells. The assay is based on exogenous PCSK9 and LDL-C complexed with a pH-sensitive dye. Outside the cells, at neutral pH, the pHrodo Red-LDL is dimly fluorescent but upon LDLR mediated endocytosis it fluoresces brightly. PCSK9 traffics the LDLR to intracellular degradation and reduces uptake of LDL-C. Inhibition of PCSK9 reduces LDLR degradation and the increased LDL-C uptake is quantified by fluorescence microscopy.
Cell medium: MEM supplemented with 10% FBS, 1× NEAA and Sodium Pyruvate
Assay medium: OptiMem supplemented with penicillin/streptomycin
Cells: HepG2 (ATCC #HB-8065)
Cryopreserved HepG2 cells were thawed in assay medium and centrifuged for 5 min at 250 g. Supernatant was discarded and the cell pellet resuspended in cell medium and counted with a Nucleocounter. Cells were again centrifuged 5 min at 250 g and the pellet was resuspended to 500000 cells/mL in assay medium. • 2. 20 μL of above cell mix was dispensed into black pclear TC treated 384 well plates with Multidrop Combi and left at room temperature for 20 minutes. • 3. Plates were incubated at 37° C., 5% CO2 for 24 h
Test compounds were prepared in concentration response in DMSO with a half-log dilution factor in DMSO in Echo 384 LDV plates starting at 10 mM. • 2. 30 nL of above test compounds were dispensed with Echo 655 to cells for a top concentration of 10 μM • 3. […] Plates were incubated at 37° C., 5% CO2 for 24 h
10 μL pHrodo Red-LDL in assay medium was dispensed to cells with Multidrop Combi for 6 μg/mL • 2. Plates were incubated at 37° C., 5% CO2 and imaged with the Incucyte S3 after 4 h and 24 h
Image data was processed using Incucyte 2021, a software to identify cells and red fluorescent intensity. Screener was used to further process data. Data was normalized as % effect of the signal between median values of the on-plate controls of DMSO and 100 nM Evolocumab according to the formula % effect=−100*(x−DMSO)/(Evolocumab−DMSO) where x equals the measured signal. Concentration response data of the normalized values were fitted using a four-parameter logistic fit.

[3] = molecular target: GSK3b (Glycogen synthase kinase-3 beta) (Homo sapiens, UniProt P49841); experiment: Assay 6 - GSK3b assay (ThermoFisher, FRET Z-Lyte); type: biochemical; details: geometric mean; ATP Conc: 10.000 μM; read-out: Assay 6 (GSK3B FRET-Z-Lyte CR) GMean IC50 (μM) ATP Conc: 10.000
Method in brief: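 Z-Lyte FRET kinase assay: 0.22-0.92 ng GSK3β with 2 μM Ser/Thr 09 peptide in 50 mM HEPES pH 7.5, 10 mM MgCl2, 1 mM EGTA, 0.01% BRIJ-35, 60 min at room temperature, then 60 min development. Compounds in 1% DMSO, 10-point 3-fold dilutions from 10 μM; sigmoidal dose-response fit.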

[4] = molecular target: T2, PCSK9; experiment: biochemical
Target sequence in this assay (Q8NBP7 with tags, fused parts or gaps V474I/G670E): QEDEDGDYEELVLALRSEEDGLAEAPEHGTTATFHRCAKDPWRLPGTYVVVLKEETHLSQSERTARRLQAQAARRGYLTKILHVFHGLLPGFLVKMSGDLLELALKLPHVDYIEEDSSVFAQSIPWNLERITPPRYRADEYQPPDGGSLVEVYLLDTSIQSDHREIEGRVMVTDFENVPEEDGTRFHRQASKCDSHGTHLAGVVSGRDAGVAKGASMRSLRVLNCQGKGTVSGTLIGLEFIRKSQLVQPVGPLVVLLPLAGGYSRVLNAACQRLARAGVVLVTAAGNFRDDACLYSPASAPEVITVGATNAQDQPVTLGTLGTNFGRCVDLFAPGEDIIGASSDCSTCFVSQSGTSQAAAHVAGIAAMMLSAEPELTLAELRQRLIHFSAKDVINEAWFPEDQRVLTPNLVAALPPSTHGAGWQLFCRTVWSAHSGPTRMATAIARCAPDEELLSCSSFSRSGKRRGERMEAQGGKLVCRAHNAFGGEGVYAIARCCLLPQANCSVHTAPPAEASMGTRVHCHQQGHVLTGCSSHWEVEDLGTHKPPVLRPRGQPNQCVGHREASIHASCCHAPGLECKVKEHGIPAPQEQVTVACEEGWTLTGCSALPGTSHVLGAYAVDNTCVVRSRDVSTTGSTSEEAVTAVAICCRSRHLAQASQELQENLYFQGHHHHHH

[5] = molecular target: T3, PCSK9 (Homo sapiens, UniProt Q8NBP7); experiment: Assay 2 - Biophysical human PCSK9 assay (SPR, Biacore); type: binding; set-up: biotinylated human PCSK9 (31-692)-Avi-His6; details: geometric mean; SPR single-cycle kinetics, 30° C.; read-out: Assay 2 (PCSK9 BIAcore DBA CR) GMean Kd
Experimental: The SPR binding experiments were performed on a Biacore S200 optical biosensor unit at 30° C. A Series S Sensor Chip SA that is designed to bind biotinylated molecules for interaction analysis in Biacore systems was equilibrated at room temperature prior to use. The running buffer for protein tethering and subsequent ligand binding experiments was 10 mM HEPES pH 7.4, 150 mM NaCl, 0.05% (v/v) Tween 20 pH 7.4.
For the surface tethering of PCSK9, biotinylated human PCSK9 (31-692)-Avi-His6 at a concentration of 0.5 mg/mL was used. Prior to the surface tethering, the surface was exposed to a solution of 50 mM NaOH, 500 mM NaCl via 3 consecutive injections of this solution with a contact time of 60 s and a flowrate of 10 μL min- to remove non-conjugated streptavidin. The PCSK9 protein was diluted to a concentration of 20 μg/mL using running buffer and injected with a contact time of 180-300 s and a flowrate of 10 μL min^−1 over a single flow channel (typically flow channel 2 or flow channel 4) with the aim to achieve protein capture levels of >5000 response units (RU). Remaining biotin binding sites were blocked via 2 consecutive injections of a 10 μM D-biotin solution in running buffer with a contact time of 60 s and a flowrate of 10 μL min^−1 over all flow-channels.
The binding experiments were all performed at a flow rate of 30 μL min^−1 and by employing the method of single-cycle kinetics. This approach involves the sequential injection of a compound concentration series without regeneration steps. A contact time between 90-150 s was selected, which was followed by a 40 min dissociation phase to allow for a proper estimation of the dissociation rate constant. Test compounds were delivered in DMSO at a concentration of 10 mM and a digital dispenser HP D300 was used to set up the compound concentration series using 6 concentrations. The tested concentrations have been 30, 100, 300, 1000, 3000 and 10000 nM. Prior to injecting any compound, the surfaces were equilibrated by injecting running buffer over them in three separate pulses. The data collection rate was set to 10 Hz.
The raw sensorgrams of the compound injections were first subjected to reference subtraction (subtracting the signal from flow channel 1 and/or 3 from the signal from channels 2 and/or 4 respectively) and then blank subtraction (subtracting the signal from injecting DMSO controls from the reference subtracted data). The resulting double-referenced sensorgrams were then fitted using a 1:1 binding interaction model using the manufactures software package to extract kinetic- and affinity data.
Target sequence in this assay (Q8NBP7 31-692): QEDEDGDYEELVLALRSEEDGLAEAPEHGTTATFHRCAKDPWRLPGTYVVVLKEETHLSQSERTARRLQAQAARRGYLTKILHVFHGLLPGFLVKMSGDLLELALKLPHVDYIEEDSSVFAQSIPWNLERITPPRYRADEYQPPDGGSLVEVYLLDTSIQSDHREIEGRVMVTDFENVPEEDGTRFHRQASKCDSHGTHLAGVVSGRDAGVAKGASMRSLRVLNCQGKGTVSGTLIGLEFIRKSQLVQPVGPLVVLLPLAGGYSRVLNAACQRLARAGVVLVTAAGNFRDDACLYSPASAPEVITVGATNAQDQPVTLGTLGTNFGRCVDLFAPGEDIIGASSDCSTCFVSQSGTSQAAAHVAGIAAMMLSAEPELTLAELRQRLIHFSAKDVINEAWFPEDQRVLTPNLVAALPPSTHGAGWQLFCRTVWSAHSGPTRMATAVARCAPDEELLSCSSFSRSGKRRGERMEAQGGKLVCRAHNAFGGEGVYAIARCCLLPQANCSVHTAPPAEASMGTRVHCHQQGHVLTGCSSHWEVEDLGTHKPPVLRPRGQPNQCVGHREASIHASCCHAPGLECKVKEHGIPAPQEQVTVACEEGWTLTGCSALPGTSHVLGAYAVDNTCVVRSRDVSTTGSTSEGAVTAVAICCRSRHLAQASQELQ

[6] = molecular target: T3, PCSK9; details: clinical trials, compared to placebo (Elbitar 2016); cited from earlier work
Target sequence in this assay (Q8NBP7 153-692): as the sequence (Q8NBP7 153-692 V474I/G670E) above, with I322V, E518G counted along it

T1 sequence (Q12809 whole entry): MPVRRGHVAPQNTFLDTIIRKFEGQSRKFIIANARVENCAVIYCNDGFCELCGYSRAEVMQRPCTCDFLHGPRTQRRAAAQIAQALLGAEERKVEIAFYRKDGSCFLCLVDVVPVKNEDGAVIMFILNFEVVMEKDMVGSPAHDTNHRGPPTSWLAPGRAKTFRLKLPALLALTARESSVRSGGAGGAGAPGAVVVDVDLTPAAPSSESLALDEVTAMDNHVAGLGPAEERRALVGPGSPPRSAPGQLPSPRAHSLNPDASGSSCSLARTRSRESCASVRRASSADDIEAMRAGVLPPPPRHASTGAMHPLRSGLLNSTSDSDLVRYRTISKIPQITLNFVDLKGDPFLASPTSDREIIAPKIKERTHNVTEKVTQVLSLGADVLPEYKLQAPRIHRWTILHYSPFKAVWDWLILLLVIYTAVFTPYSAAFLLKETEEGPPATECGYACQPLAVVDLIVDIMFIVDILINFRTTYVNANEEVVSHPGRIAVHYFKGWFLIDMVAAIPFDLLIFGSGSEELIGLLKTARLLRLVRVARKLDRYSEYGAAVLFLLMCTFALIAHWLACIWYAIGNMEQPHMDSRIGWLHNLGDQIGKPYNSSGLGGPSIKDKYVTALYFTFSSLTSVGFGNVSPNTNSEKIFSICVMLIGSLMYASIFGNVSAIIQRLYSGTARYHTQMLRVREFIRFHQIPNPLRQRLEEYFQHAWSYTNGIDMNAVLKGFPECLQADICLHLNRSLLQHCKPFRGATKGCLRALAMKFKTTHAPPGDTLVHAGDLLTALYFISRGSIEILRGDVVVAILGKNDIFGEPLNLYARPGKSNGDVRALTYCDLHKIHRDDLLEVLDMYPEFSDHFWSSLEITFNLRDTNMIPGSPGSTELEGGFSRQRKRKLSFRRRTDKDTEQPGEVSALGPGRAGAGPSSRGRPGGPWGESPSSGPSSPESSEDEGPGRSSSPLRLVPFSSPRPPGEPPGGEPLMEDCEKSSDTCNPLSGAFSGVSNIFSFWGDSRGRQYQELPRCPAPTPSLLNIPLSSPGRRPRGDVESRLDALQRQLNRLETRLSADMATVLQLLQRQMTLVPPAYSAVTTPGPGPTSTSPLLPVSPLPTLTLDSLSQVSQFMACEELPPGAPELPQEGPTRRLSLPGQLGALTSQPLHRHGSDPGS
Sequence of GSK3b (Glycogen synthase kinase-3 beta) (P49841 whole entry): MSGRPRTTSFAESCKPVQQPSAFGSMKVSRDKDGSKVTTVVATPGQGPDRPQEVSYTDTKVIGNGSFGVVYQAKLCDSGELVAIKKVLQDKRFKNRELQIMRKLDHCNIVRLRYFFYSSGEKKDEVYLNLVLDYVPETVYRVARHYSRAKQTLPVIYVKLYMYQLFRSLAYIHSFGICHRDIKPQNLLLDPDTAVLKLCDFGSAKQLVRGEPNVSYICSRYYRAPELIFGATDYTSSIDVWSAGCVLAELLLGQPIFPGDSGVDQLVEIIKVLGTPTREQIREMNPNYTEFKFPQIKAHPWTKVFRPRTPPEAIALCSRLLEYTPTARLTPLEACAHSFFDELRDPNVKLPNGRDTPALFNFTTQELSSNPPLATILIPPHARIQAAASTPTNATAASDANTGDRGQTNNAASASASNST

CN1C(=O)CN(c2ccc(N[C@H]3CC[C@H](Nc4nc5cccnc5[nH]4)C3)nc2)C1=O [Example 37, 1-(6-(((1S,3S)-3-((3H-Imidazo[4,5-b]pyridin-2-yl)amino)cyclopentyl)amino)pyridin-3-yl)-3-methylimidazolidine-2,4-dione]
IC50 [1]: > 40 µM | IC50 [2]: 127 nM | IC50 [3]: > 10 µM | IC50 [4]: 4.4 nM | Kd [5]: 3 nM

Cc1cccn(-c2ccc(N[C@H]3CC[C@H](Nc4nc5cccnc5[nH]4)C3)nc2)c1=O [Example 40, 6′-(((1S,3S)-3-((3H-Imidazo[4,5-b]pyridin-2-yl)amino)cyclopentyl)amino)-3-methyl-2H-[1,3′-bipyridin]-2-one]
IC50 [1]: > 40 µM | IC50 [2]: 90 nM | IC50 [3]: 8.15 µM | IC50 [4]: 1.6 nM | Kd [5]: 1 nM

O=C(O)c1ccc(=O)n(-c2ccc(N[C@H]3CC[C@H](Nc4nc5cccnc5[nH]4)C3)nc2)c1 [Example 44, 6′-(((1S,3S)-3-((3H-Imidazo[4,5-b]pyridin-2-yl)amino)cyclopentyl)amino)-2-oxo-2H-[1,3′-bipyridine]-5-carboxylic acid]
IC50 [1]: > 40 µM | IC50 [2]: 82 nM | IC50 [3]: 7.91 µM | IC50 [4]: 4.1 nM | Kd [5]: 4 nM

O=c1ccccn1-c1ccc(N[C@H]2CC[C@H](Nc3nc4cccnc4[nH]3)C2)nc1 [Example 46, 6′-(((1S,3S)-3-((3H-Imidazo[4,5-b]pyridin-2-yl)amino)cyclopentyl)amino)-2H-[1,3′-bipyridin]-2-one]
IC50 [1]: > 40 µM | IC50 [2]: 102 nM | IC50 [3]: 0.425 µM | IC50 [4]: 4.4 nM | Kd [5]: 6 nM

O=c1ccccn1-c1ccc(N[C@H]2CC[C@H](Nc3nc4cc(CO)cnc4[nH]3)C2)nc1 [Example 61, 6′-(((1S,3S)-3-((6-(Hydroxymethyl)-3H-imidazo[4,5-b]pyridin-2-yl)amino)cyclopentyl)amino)-2H-[1,3′-bipyridin]-2-one]
IC50 [1]: > 40 µM | IC50 [2]: 100 nM | IC50 [3]: > 10 µM | IC50 [4]: 8.9 nM | Kd [5]: 11 nM

O=c1ccccn1-c1ccc(N[C@H]2CC[C@H](Nc3nc4c(Br)ccnc4[nH]3)C2)nc1 [Example 73, 6′-(((1S,3S)-3-((7-Bromo-3H-imidazo[4,5-b]pyridin-2-yl)amino)cyclopentyl)amino)-2H-[1,3′-bipyridin]-2-one]
IC50 [1]: > 40 µM | IC50 [2]: 280 nM | IC50 [3]: 0.192 µM | IC50 [4]: 4.7 nM | Kd [5]: 5 nM

O=c1c2sccc2ccn1-c1ccc(N[C@H]2CC[C@H](Nc3nc4cccnc4s3)C2)nc1 [Example 76, 6-(6-(((1S,3S)-3-(Thiazolo[5,4-b]pyridin-2-ylamino)cyclopentyl)amino)pyridin-3-yl)thieno[2,3-c]pyridin-7(6H)-one]
IC50 [1]: 2.57 µM | IC50 [2]: 55 nM | IC50 [3]: > 10 µM | IC50 [4]: 0.4 nM | Kd [5]: 0.1 nM

Cn1ccc(=O)n(-c2ccc(N[C@H]3CC[C@H](Nc4nc5cccnc5s4)C3)nc2)c1=O [Example 82, 1-Methyl-3-(6-(((1S,3S)-3-(thiazolo[5,4-b]pyridin-2-ylamino)cyclopentyl)amino)pyridin-3-yl)pyrimidine-2,4(1H,3H)-dione]
IC50 [1]: > 40.1 µM | IC50 [2]: 124 nM | IC50 [3]: > 10 µM | IC50 [4]: 2.3 nM | Kd [5]: 1 nM

O=c1[nH]c2ccsc2c(=O)n1-c1ccc(N[C@H]2CC[C@H](Nc3nc4cccnc4s3)C2)nc1 [Example 83, 3-(6-(((1S,3S)-3-(Thiazolo[5,4-b]pyridin-2-ylamino)cyclopentyl)amino)pyridin-3-yl)thieno[3,2-d]pyrimidine-2,4(1H,3H)-dione]
IC50 [1]: > 40.1 µM | IC50 [2]: 79 nM | IC50 [3]: > 10 µM | IC50 [4]: 0.5 nM | Kd [5]: 0.1 nM

alirocumab
decrease in LDL levels [6]: about 50%
